From patent publication US10689377B2 (Mirati Therapeutics, Inc., priority 2017, dated 2020)

Molecular target: KRas G12C (Homo sapiens, UniProt P01116, G12C)
Experiment: Cellular inhibition of KRas G12C measured by Phospho-ERK in NCI-H358 cells
Format: cell-based
Conditions: pERK(Thr202/Tyr204) normalized with GAPDH, NCI-H358 cells, 3 hours; read-out: IC50
Summary of the method: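 NCI-H358 cells were allowed to attach for 8-12 hours, then exposed to compounds for 3 hours at 0.5% DMSO final. After formaldehyde fixation and methanol permeabilization, phospho-ERK (Thr202/Tyr204) was detected by in-cell immunofluorescence and normalized to GAPDH; IC50 came from a 4-parameter fit of percent-of-DMSO values.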

Sequence of KRas G12C (P01116 1-188 isoform P01116-2 G12C): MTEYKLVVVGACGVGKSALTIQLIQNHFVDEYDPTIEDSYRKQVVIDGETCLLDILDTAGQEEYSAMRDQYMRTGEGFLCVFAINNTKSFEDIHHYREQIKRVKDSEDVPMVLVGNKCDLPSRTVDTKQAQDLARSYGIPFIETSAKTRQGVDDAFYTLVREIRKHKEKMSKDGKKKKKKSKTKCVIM

Which IC50 does the source give for `C=CC(=O)N1CCN(c2nc(OCCN(C)C)nc3c2CCN(c2cc(O)cc4ccccc24)C3)CC1CC#N` (stereo not shown) [Example 170, 2-(1-acryloyl-4-(2-(2-(dimethylamino)ethoxy)-7-(3-hydroxynaphthalen-1-yl)-5,6,7,8-tetrahydropyrido[3,4-d]pyrimidin-4-yl)piperazin-2-yl)acetonitrile] here?
Its IC50 is 0.1 to 1000 nM.

`C=CC(=O)N1CCN(c2nc(OCCN(C)C)nc3c2CCN(c2cc(O)cc4ccccc24)C3)C(CCO)C1` (stereo not shown) [Example 172, 1-(4-(2-(2-(dimethylamino)ethoxy)-7-(3-hydroxynaphthalen-1-yl)-5,6,7,8-tetrahydropyrido[3,4-d]pyrimidin-4-yl)-3-(2-hydroxyethyl)piperazin-1-yl)prop-2-en-1-one] was tested. Which IC50 did it give?
Its IC50 is greater than 1000 nM.

Which IC50 does the source give for `C=CC(=O)N1CCN(c2nc(OC[C@H]3CCC(C)(C)N3)nc3c2CCN(c2cc(O)cc4ccccc24)C3)CC1` [Example 174, (R)-1-(4-(2-((5,5-dimethylpyrrolidin-2-yl)methoxy)-7-(3-hydroxynaphthalen-1-yl)-5,6,7,8-tetrahydropyrido[3,4-d]pyrimidin-4-yl)piperazin-1-yl)prop-2-en-1-one] here?
The IC50 was greater than 1000 nM.

For `C=CC(=O)N1CCN(c2nc(OCCN(C)C)nc3c2CCN(c2cc(O)cc4ccccc24)C3)C[C@@H]1CC#N` [Example 176, 2-[(2S)-4-[2-[2-(dimethylamino)ethoxy]-7-(3-hydroxy-1-naphthyl)-6,8-dihydro-5H-pyrido[3,4-d]pyrimidin-4-yl]-1-prop-2-enoyl-piperazin-2-yl] acetonitrile], which IC50 is on record?
Its IC50 is 0.1 to 1000 nM.

How did the IC50 turn out when `C=CC(=O)N1CCN(c2nc(OC[C@H]3CCCN3C)nc3c2CCN(c2cc(O)cc4ccccc24)C3)CC1CC#N` (stereo partly drawn) [Example 178, 2-[4-[7-(3-hydroxy-1-naphthyl)-2-[[(2R)-1-methylpyrrolidin-2-yl]methoxy]-6,8-dihydro-5H-pyrido[3,4-d]pyrimidin-4-yl]-1-prop-2-enoyl-piperazin-2-yl]acetonitrile] was run?
The IC50 was 0.1 to 1000 nM.

`C=CC(=O)N1CCN(c2nc(OC[C@@H]3CCN(C)C3)nc3c2CCN(c2cc(O)cc4ccccc24)C3)CC1CC#N` (stereo partly drawn) [Example 179, 2-[4-[7-(3-hydroxy-1-naphthyl)-2-[[(3R)-1-methylpyrrolidin-3-yl]methoxy]-6,8-dihydro-5H-pyrido[3,4-d]pyrimidin-4-yl]-1-prop-2-enoyl-piperazin-2-yl]acetonitrile] was tested. Which IC50 did it give?
The IC50 was 0.1 to 1000 nM.

With `C=CC(=O)N1CCN(c2nc(OCCCN3C[C@@H]4C[C@H]3CO4)nc3c2CCN(c2c(C)ccc4[nH]ncc24)C3)CC1` [Example 181, 1-(4-(2-(3-((1S,4S)-2-oxa-5-azabicyclo[2.2.1]heptan-5-yl)propoxy)-7-(5-methyl-1H-indazol-4-yl)-5,6,7,8-tetrahydropyrido[3,4-d]pyrimidin-4-yl)piperazin-1-yl)prop-2-en-1-one] as the compound, how does the IC50 read?
Its IC50 is greater than 1000 nM.

For `C=CC(=O)N1CCN(c2nc(OCCCO)nc3c2CCN(c2cc(O)cc4ccccc24)C3)CC1` [Example 184, 1-[4-[7-(3-hydroxy-1-naphthyl)-2-(3-hydroxypropoxy)-6,8-dihydro-5H-pyrido[3,4-d]pyrimidin-4-yl]piperazin-1-yl]prop-2-en-1-one], which IC50 is on record?
The IC50 was greater than 1000 nM.

`C=CC(=O)N1CCN(c2nc(OCCCN3C[C@H]4C[C@@H]3CO4)nc3c2CCN(c2cc(O)cc4ccccc24)C3)CC1` [Example 185, 1-(4-(2-(3-((1R,4R)-2-oxa-5-azabicyclo[2.2.1]heptan-5-yl)propoxy)-7-(3-hydroxynaphthalen-1-yl)-5,6,7,8-tetrahydropyrido[3,4-d]pyrimidin-4-yl)piperazin-1-yl)prop-2-en-1-one] was tested. Which IC50 did it give?
Its IC50 is 0.1 to 1000 nM.

How did the IC50 turn out when `C=CC(=O)N1CCN(c2nc(-c3cccc(CN4CCOCC4)c3)nc3c2CCN(c2cc(O)cc4ccccc24)C3)CC1` [Example 186] was run?
Its IC50 is greater than 1000 nM.

How did the IC50 turn out when `C=CC(=O)N1CCN(c2nc(OC[C@H]3CCN(C)C3)nc3c2CCN(c2cc(O)cc4ccccc24)C3)CC1` [Example 188, (S)-1-(4-(7-(3-hydroxynaphthalen-1-yl)-2-((1-methylpyrrolidin-3-yl)methoxy)-5,6,7,8-tetrahydropyrido[3,4-d]pyrimidin-4-yl)piperazin-1-yl)prop-2-en-1-one] was run?
The IC50 was 0.1 to 1000 nM.

`C=CC(=O)N1CCN(c2nc(OCC3CCN(Cc4ccccc4)C3)nc3c2CCN(c2cc(O)cc4ccccc24)C3)CC1` (stereo not shown) [Example 189, 1-(4-(2-((1-benzylpyrrolidin-3-yl)methoxy)-7-(3-hydroxynaphthalen-1-yl)-5,6,7,8-tetrahydropyrido[3,4-d]pyrimidin-4-yl)piperazin-1-yl)prop-2-en-1-one] was tested. Which IC50 did it give?
The IC50 was greater than 1000 nM.

Which IC50 does the source give for `C=CC(=O)N1CCN(c2nc(OCC3CCN(C4CC4)C3)nc3c2CCN(c2cc(O)cc4ccccc24)C3)CC1` (stereo not shown) [Example 190, 1-(4-(2-((1-cyclopropylpyrrolidin-3-yl)methoxy)-7-(3-hydroxynaphthalen-1-yl)-5,6,7,8-tetrahydropyrido[3,4-d]pyrimidin-4-yl)piperazin-1-yl)prop-2-en-1-one] here?
The IC50 was 0.1 to 1000 nM.

With `C=CC(=O)N1[C@H](C)CN(c2nc(OCCCN3CCOCC3)nc3c2CCN(c2cc(O)cc4ccccc24)C3)C[C@@H]1C` [Example 191, 1-((2S,6R)-4-(7-(3-hydroxynaphthalen-1-yl)-2-(3-morpholinopropoxy)-5,6,7,8-tetrahydropyrido[3,4-d]pyrimidin-4-yl)-2,6-dimethylpiperazin-1-yl)prop-2-en-1-one] as the compound, how does the IC50 read?
Its IC50 is greater than 1000 nM.

`C=CC(=O)N1CCN(c2nc(OC[C@@H]3CCCN(C)C3)nc3c2CCN(c2cc(O)cc4ccccc24)C3)CC1` [Example 192, (R)-1-(4-(7-(3-hydroxynaphthalen-1-yl)-2-((1-methylpiperidin-3-yl)methoxy)-5,6,7,8-tetrahydropyrido[3,4-d]pyrimidin-4-yl)piperazin-1-yl)prop-2-en-1-one] was tested. Which IC50 did it give?
The IC50 was 0.1 to 1000 nM.

For `C=CC(=O)N1CCN(c2nc(OCC3CN(C)CCO3)nc3c2CCN(c2cc(O)cc4ccccc24)C3)CC1` (stereo not shown) [Example 193, 1-(4-(7-(3-hydroxynaphthalen-1-yl)-2-((4-methylmorpholin-2-yl)methoxy)-5,6,7,8-tetrahydropyrido[3,4-d]pyrimidin-4-yl)piperazin-1-yl)prop-2-en-1-one], which IC50 is on record?
Its IC50 is 0.1 to 1000 nM.

For `C=CC(=O)N1CCN(c2nc(OCC3COCCN3C)nc3c2CCN(c2cc(O)cc4ccccc24)C3)CC1` (stereo not shown) [Example 194, 1-(4-(7-(3-hydroxynaphthalen-1-yl)-2-((4-methylmorpholin-3-yl)methoxy)-5,6,7,8-tetrahydropyrido[3,4-d]pyrimidin-4-yl)piperazin-1-yl)prop-2-en-1-one], which IC50 is on record?
The IC50 was greater than 1000 nM.

With `C=CC(=O)N1CCN(c2nc(OC[C@H]3CCCCN3C)nc3c2CCN(c2cc(O)cc4ccccc24)C3)CC1` [Example 195, (R)-1-(4-(7-(3-hydroxynaphthalen-1-yl)-2-((1-methylpiperidin-2-yl)methoxy)-5,6,7,8-tetrahydropyrido[3,4-d]pyrimidin-4-yl)piperazin-1-yl)prop-2-en-1-one] as the compound, how does the IC50 read?
Its IC50 is greater than 1000 nM.

For `C=CC(=O)N1CCN(c2nc(OC[C@@H]3CCCCN3C)nc3c2CCN(c2cc(O)cc4ccccc24)C3)CC1` [Example 196, (S)-1-(4-(7-(3-hydroxynaphthalen-1-yl)-2-((1-methylpiperidin-2-yl)methoxy)-5,6,7,8-tetrahydropyrido[3,4-d]pyrimidin-4-yl)piperazin-1-yl)prop-2-en-1-one], which IC50 is on record?
The IC50 was 0.1 to 1000 nM.
